From publication PMC11555678, “Improved Broad Spectrum Antifungal Drug Synergies with Cryptomycin, a Cdc50-Inspired Antifungal Peptide” (ACS Infectious Diseases, 2024)
In brackets after ≈: the same amount, converted by molar mass. Square brackets hold non-standard residues; d marks the D form. Peptide text beside a SMILES is read from it. * marks the point of attachment. Myristoyl = CCCCCCCCCCCCCC(=O)*; Orn = NCCC[C@H](N)C(=O)O

How the values were obtained:
Assay in all cases: microbe, parasite or virus in culture
C. neoformans cdc50Δ = assay type: cell-based, Cryptococcus neoformans
Description: (§1) All microdilution assays with fungi were carried out in accordance with CLSI protocols from M27 for yeasts and M38 for filamentous fungi, respectively, unless otherwise specified.[64],[65] Briefly, 96-well plates were charged with RPMI1640 media, with operating volume in the first column, 200 μL, and half operating volume, 100 μL, in the remaining wells. Drug stock solution in DMSO was aliquoted into the first well in each row. Half of the volume in the dosed well was serially diluted 2-fold until column 11. Column 11 was used as the negative growth control, and column 12 was used as the positive growth control. ON yeast cultures in YPD were washed twice in DD-H2O, resuspended in PBS, and adjusted to 5000 cfu/mL in RPMI. The 96-well plate was inoculated with 100 μL aliquots of cell suspension per well. Plates were incubated at 37 °C for 2 days.

C. neoformans apt2Δ = assay type: cell-based, Cryptococcus neoformans; conditions: compound alone; RPMI1640, 37 °C, 48 h
Description: as §1

C. neoformans MRL862 = assay type: cell-based, Cryptococcus neoformans; conditions: MRL862, 48 h
Description: as §1

C. neoformans apt4Δ = assay type: cell-based, Cryptococcus neoformans; conditions: compound alone; RPMI1640, 37 °C, 48 h
Description: as §1

C. neoformans apt1Δ = assay type: cell-based, Cryptococcus neoformans; conditions: compound alone; RPMI1640, 37 °C, 48 h
Description: as §1

C. neoformans apt3Δ = assay type: cell-based, Cryptococcus neoformans; conditions: compound alone; RPMI1640, 37 °C, 48 h
Description: as §1

C. neoformans crm1Δ = assay type: cell-based, Cryptococcus neoformans; conditions: compound alone; RPMI1640, 37 °C, 48 h
Description: as §1

C. neoformans Crm1^OE = assay type: cell-based, Cryptococcus neoformans; conditions: compound alone; RPMI1640, 37 °C, 48 h
Description: as §1

C. neoformans H99 = assay type: cell-based, Cryptococcus neoformans
Description: as §1

A. fumigatus AF293 = assay type: cell-based, Aspergillus fumigatus; conditions: AF293, 48 h
Description: as §1

C. albicans SC5413 = assay type: cell-based, Candida albicans
Description: as §1

C. auris B11245 = assay type: cell-based, Candida auris; conditions: B11245, 48 h
Description: as §1

C. glabrata FKS1-S629P = assay type: cell-based, Candida glabrata; conditions: compound alone; RPMI1640, 37 °C, 48 h
Description: as §1

C. glabrata 2001 = assay type: cell-based, Candida glabrata
Description: as §1

C. glabrata FKS2-S663P = assay type: cell-based, Candida glabrata; conditions: compound alone; RPMI1640, 37 °C, 48 h
Description: as §1

[1] = Table S1, unit and conditions not given (MICs elsewhere in μg/mL)

In the case of `CCCCCCCCCCCCCC(=O)N[C@@H](Cc1c[nH]c2ccccc12)C(=O)NCC(=O)NCC(=O)N[C@H](C(=O)N[C@@H](CCCN)C(=O)N[C@@H](CCCN)C(=O)N[C@@H](CC(N)=O)C(=O)N[C@@H](Cc1ccc(O)cc1)C(=O)N[C@@H](C)C(N)=O)[C@@H](C)CC` [KKOO-NH2] (Myristoyl-WGGI[Orn][Orn]NYA-NH2), the “MIC (SAR screen peptides)” value (C. neoformans cdc50Δ; [1]) is reported as 4, the MIC (C. neoformans cdc50Δ; compound alone, RPMI1640, 37 °C, 48 h) is reported as 4 µg/mL (≈ 3.29 µM) and the MIC (C. neoformans apt2Δ) is reported as 4 µg/mL (≈ 3.29 µM). For the same compound, the MIC (C. neoformans MRL862) was 8 µg/mL (≈ 6.57 µM), the MIC (C. neoformans apt4Δ) was 4 µg/mL (≈ 3.29 µM) and the MIC (C. neoformans apt1Δ) was 4 µg/mL (≈ 3.29 µM). The MIC (C. neoformans apt3Δ) was 4 µg/mL (≈ 3.29 µM), the MIC (C. neoformans crm1Δ) was 4 µg/mL (≈ 3.29 µM) and the MIC (C. neoformans Crm1^OE) was 4 µg/mL (≈ 3.29 µM). For the same compound, the MIC (C. neoformans H99; H99, 48 h) was 8 µg/mL (≈ 6.57 µM), the “MIC (SAR screen peptides)” value (C. neoformans H99; [1]) was 8 and the MIC (A. fumigatus AF293) was 32 µg/mL (≈ 26.3 µM). For the same compound, the MIC (C. albicans SC5413; SC5413, 48 h) was 16 µg/mL (≈ 13.1 µM), the “MIC (SAR screen peptides)” value (C. albicans SC5413; [1]) was 16 and the MIC (C. auris B11245) was 16 µg/mL (≈ 13.1 µM). The MIC (C. glabrata FKS1-S629P) was 8 µg/mL (≈ 6.57 µM), the MIC (C. glabrata 2001; 2001, 48 h) was 8 µg/mL (≈ 6.57 µM) and the “MIC (SAR screen peptides)” value (C. glabrata 2001; [1]) was 8. It also gave an MIC (C. glabrata FKS2-S663P) of 8 µg/mL (≈ 6.57 µM).
